Data on 8 molecules can be found in article PMC5015447 (Biochemistry, 2016).

“And” between values parts separate entries of the source, which are not always exact repeats. Identical values can stand only once. Like-named read-outs stand apart in the source and are kept apart here.

In assay [1] the target is E. coli cofactor-dependent phosphoglycerate mutase (dPGM) (Escherichia coli, UniProt P62707). Put plainly: biochemical. It counts as binding.
In assay [2] the target is T1, dPGM R9A (Escherichia coli, UniProt P62707, R10A). In words: Equilibrium unfolding of dPGM variant R9A with 1.0 mM ATP. It counts as binding, E. coli.
T1 sequence (P62707 whole entry R10A): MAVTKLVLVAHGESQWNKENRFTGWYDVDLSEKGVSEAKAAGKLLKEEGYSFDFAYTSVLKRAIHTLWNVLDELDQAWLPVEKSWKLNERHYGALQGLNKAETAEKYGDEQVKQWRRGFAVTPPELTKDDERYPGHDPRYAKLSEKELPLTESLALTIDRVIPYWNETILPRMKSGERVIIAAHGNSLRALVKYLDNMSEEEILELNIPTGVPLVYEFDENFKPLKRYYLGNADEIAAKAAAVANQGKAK
The target in assay [3] is T2, dPGM K99A (Escherichia coli, UniProt P62707, K100A). In words: Equilibrium unfolding of dPGM variant K99A with 1.0 mM ATP. In kind it is binding, E. coli.
T2 sequence (P62707 whole entry K100A): as the sequence (P62707 whole entry R10A) above, with A10R, K100A counted along it
Assay [4] addresses T3, dPGM R115A (Escherichia coli, UniProt P62707, R116A). In words: Equilibrium unfolding of dPGM variant R115A with 1.0 mM ATP. It counts as binding, E. coli.
Assay [5] has as its target T4, dPGM R116A (Escherichia coli, UniProt P62707, R117A). Put plainly: Equilibrium unfolding of dPGM variant R116A with 1.0 mM ATP. It counts as binding, E. coli.
Assay [6] deals with T5, dPGM K222A (Escherichia coli, UniProt P62707, K223A). In words: Equilibrium unfolding of dPGM variant K222A. In kind it is binding, E. coli.
T5 sequence (P62707 whole entry K223A): as the sequence (P62707 whole entry R10A) above, with A10R, K223A counted along it
The next assay concerns the target Wild-type dPGM (Escherichia coli, UniProt P62707). In words: ATP binding by isothermal titration calorimetry, wild-type dPGM. On the set-up: species or system E. coli. (In general: In ITC the heat of successive injections is recorded.)
Assay [7] addresses T1, dPGM R9A. In words: ATP binding by isothermal titration calorimetry, R9A. The arrangement: species or system E. coli.
The target in assay [8] is T2, dPGM K99A. In words: ATP binding by isothermal titration calorimetry, K99A. The arrangement: species or system E. coli.
Assay [9] concerns the target T3, dPGM R115A. Put plainly: ATP binding by isothermal titration calorimetry, R115A. The arrangement: species or system E. coli.
Assay [10] deals with T4, dPGM R116A. Put plainly: ATP binding by isothermal titration calorimetry, R116A. The arrangement: species or system E. coli.
Assay [11] concerns the target T5, dPGM K222A. In words: ATP binding by isothermal titration calorimetry, K222A. The arrangement: species or system E. coli.
For assay [12], the system named is cofactor-dependent phosphoglycerate mutase (dPGM). The conditions noted are these: cited from earlier work.
The test system of a further assay is S. cerevisiae dPGM. Particulars: cited from earlier work.
Setting [13] is: ligand 1.0 mM, one global fit of all nucleotide data sets.
The mark [14] stands for this setting: 50 mM phosphate, global fit with no-ligand data.
[15] abbreviates: 50 mM phosphate, global fit with no-ligand data (shared m-value).

T3 sequence (P62707 whole entry R116A): as the sequence (P62707 whole entry R10A) above, with A10R, R116A counted along it
T4 sequence (P62707 whole entry R117A): as the sequence (P62707 whole entry R10A) above, with A10R, R117A counted along it
Sequence of E. coli cofactor-dependent phosphoglycerate mutase (dPGM) (P62707 whole entry): as the sequence (P62707 whole entry R10A) above, with A10R counted along it
Sequence of Wild-type dPGM (P62707 whole entry): as the sequence (P62707 whole entry R10A) above, with A10R counted along it

Usually Kd stands for the constant that tells how readily two partners part at equilibrium. As for `Nc1ncnc2c1ncn2[C@@H]1O[C@H](COP(=O)(O)OP(=O)(O)O)[C@@H](O)[C@H]1O` [ADP, adenosine diphosphate], the affinity in [1], expressed as Kd, was 18 ± 3 µM. In addition, in assay [1] (ligand 1.0 mM), the “effect on equilibrium unfolding (first unfolding transition)” value (“effect on equilibrium unfolding” below) is on record as “significantly shift the first unfolding transition to higher urea concentrations” and the “ΔΔGI-N° = ΔGI-N°(ligand) – ΔGI-N°(no ligand)” value is 4.8 (± 0.1) kcal/mol. For the same molecule, in [1] (setting [13]), the “ΔGI-N°” value is reported as 16.4 (± 0.1) kcal/mol and the ΔGU-I is 5.2 (± 0.2) kcal/mol.

Take `Nc1ncnc2c1ncn2[C@@H]1O[C@H](COP(=O)(O)O)[C@@H](O)[C@H]1O` [AMP, adenosine monophosphate]: in assay [1] (calculated with Eq. 6 from stability increase, ligand 1.0 mM), the equilibrium dissociation constant (Kd) is 240 ± 40 µM. In assay [1] (ligand 1.0 mM), the “effect on equilibrium unfolding” value is on record as “significantly shift the first unfolding transition to higher urea concentrations” and the “ΔΔGI-N° = ΔGI-N°(ligand) – ΔGI-N°(no ligand)” value is 1.96 (± 0.09) kcal/mol. For the same molecule, in [1] (setting [13]), the “ΔGI-N°” value is 13.6 (± 0.1) kcal/mol and the ΔGU-I was 5.5 (± 0.2) kcal/mol.

As for `Nc1ncnc2c1ncn2[C@@H]1O[C@H](COP(=O)(O)OP(=O)(O)OP(=O)(O)O)[C@@H](O)[C@H]1O` [ATP, adenosine triphosphate], the dissociation constant (Kd) turned out to be 1.5 ± 0.5 µM in assay [1]; 0.32 ± 0.07 µM on Wild-type dPGM; 5.5 ± 0.5 µM at dPGM R9A [7]; 7 ± 2 µM on dPGM K99A [8]; 7 ± 2 µM at dPGM R115A [9]; 1.5 ± 0.3 µM at dPGM R116A [10]. Binding on dPGM K222A [11] was put at a Kd of 0.4 ± 0.1 µM. The “effective stability (ΔGeff)” value in assay [1] (1.0 µM dPGM, 1.0 mM ATP, native conditions) came to 5.4 kcal/mol. Besides, in [1] (1.0 mM ATP), the “Cm of the single apparent unfolding transition” value is reported as “about 3.6 M urea”. Moreover, the “increase in stability per monomeric unit” value in [1] (1.0 mM ATP) was 3.5 kcal/mol. The “ΔG° of binding of ATP to the native dimer (N2)” value in assay [1] (1.0 mM ATP, 2.5 M urea, per monomer) is recorded as “–3.5 kcal/mol”. Also, the “increase in ΔGI-N° (ΔGATP°) of wild type” value in assay [1] (1.0 mM ATP, Table 1 fit) is 7.0 ± 0.2 kcal/mol and 7.0 kcal/mol. Also, the “maximum fraction of intermediate” value in assay [1] (1.0 mM ATP, around 3.7 M urea) came to 0.12. Moreover, the “effect on ΔGU-I°” value in [1] (1.0 mM ATP, called insignificant) was determined as 0.6 kcal/mol. Besides, in assay [1] (1.0 mM ATP, fluorescence), the “ΔGU-N°” value is 30.5 ± 0.8 kcal/mol. Moreover, the ΔGI-N in assay [1] (1.0 mM ATP, fluorescence, global fit with no-ATP data, 30 µg/mL dPGM, pH 8.0) came out at 18.5 ± 0.2 kcal/mol. The “effective free energy change, I to N2•L2” value in assay [1] (2.5 M urea, 1.0 mM ATP, 1 µM dPGM) was “–2.4 kcal/mol per monomer”. The “ΔGN-I° for reaction from I to N2•L2” value in assay [1] (2.5 M urea, 1.0 mM ATP, from Table 1 and Eq. 2) is reported as “–12.5 kcal/mol”. For the same molecule, the “ΔΔGI-N° = ΔGI-N°(ligand) – ΔGI-N°(no ligand)” value in assay [1] (ligand 1.0 mM) is given as 7.7 (± 0.2) kcal/mol. Also, the “ΔGI-N°” value in [1] (setting [13]) was 19.3 (± 0.2) kcal/mol; at dPGM R9A [2] it was 16.6 ± 0.2 kcal/mol; on dPGM K99A [3] it was 18.5 ± 0.2 kcal/mol; on dPGM R115A [4], 19.4 ± 0.3 kcal/mol; on dPGM R116A [5], 18.1 ± 0.2 kcal/mol; at dPGM K222A [6] (1.0 mM ATP), 21 ± 2 kcal/mol. Besides, the ΔGU-I in [1] (setting [13]) was 5.0 (± 0.3) kcal/mol. For the same molecule, the “ΔGATP° = ΔGI-N°(1 mM ATP) - ΔGI-N°(No ATP)” value was found to be 4.2 ± 0.2 kcal/mol at dPGM R9A [2], 4.8 ± 0.4 kcal/mol on dPGM R115A [4], 5.4 ± 0.2 kcal/mol on dPGM R116A [5] and 9 ± 2 kcal/mol at dPGM K222A [6]. The “ΔGU-I°” value on dPGM R9A [2] is recorded as 6.3 ± 0.5 kcal/mol; on dPGM K99A [3], 6 ± 1 kcal/mol; on dPGM R115A [4] it was 5 ± 1 kcal/mol; on dPGM R116A [5], 5.8 ± 0.4 kcal/mol; on dPGM K222A [6] (1.0 mM ATP), 4.4 ± 0.9 kcal/mol. The “ΔΔGATP° = ΔGATP°(variant) – ΔGATP°(WT)” value is “–1.4 ± 0.1 kcal/mol” at dPGM R9A [2]; “–1.5 ± 0.2 kcal/mol” at dPGM K99A [3]; “–1.1 ± 0.2 kcal/mol” at dPGM R115A [4]; “–0.8 ± 0.1 kcal/mol” at dPGM R116A [5]; 1.2 ± 1 kcal/mol at dPGM K222A [6] (1.0 mM ATP). In addition, the “ΔGbind°” value on Wild-type dPGM (WT, calculated with Eq. 6 using [ATP] = 1.0 mM) is listed as 4.7 ± 0.1 kcal/mol; at dPGM R9A [7] (R9A, calculated with Eq. 6 using [ATP] = 1.0 mM), 3.1 ± 0.05 kcal/mol; on dPGM K99A [8] (K99A, calculated with Eq. 6 using [ATP] = 1.0 mM) it was 2.9 ± 0.2 kcal/mol; on dPGM R115A [9] (R115A, calculated with Eq. 6 using [ATP] = 1.0 mM), 2.9 ± 0.2 kcal/mol; at dPGM R116A [10] (R116A, calculated with Eq. 6 using [ATP] = 1.0 mM), 3.8 ± 0.1 kcal/mol; at dPGM K222A [11] (K222A, calculated with Eq. 6 using [ATP] = 1.0 mM) it was 4.6 ± 0.1 kcal/mol. Further, the “ΔΔGbind° = ΔGbind°(varient) – ΔGbind°(WT)” value is on record as “–1.7 ± 0.1 kcal/mol” at dPGM R9A [7] (R9A); “–1.8 ± 0.2 kcal/mol” at dPGM K99A [8] (K99A); “–1.8 ± 0.2 kcal/mol” at dPGM R115A [9] (R115A); “–0.9 ± 0.2 kcal/mol” at dPGM R116A [10] (R116A); “–0.1 ± 0.2 kcal/mol” on dPGM K222A [11] (K222A). Also, in [12] (1.0 mM ATP), the “stabilization by pulse proteolysis with purified dPGM” value is recorded as “stabilization”. The “stabilization in energetics-based proteome screen” value with S. cerevisiae dPGM is given as “stabilizes”.

Consider `Nc1ncnc2c1ncn2[C@@H]1O[C@H](CO[P@](=O)(O)O[P@](=O)(O)O[P@@](=O)(O)S)[C@@H](O)[C@H]1O` [ATPγS], for which the “protein remaining intact after pulse proteolysis” value in assay [12] (E. coli lysate, 2.0 M urea, 1.0 mM ATPγS) was “a significant population of the protein remained intact”.

Consider `Nc1ncnc2c1ncn2[C@@H]1O[C@H](CO)[C@@H](O)[C@H]1O` [Adenosine, adenosine], for which, in assay [1] (ligand 1.0 mM), the “effect on equilibrium unfolding” value is “negligible” and the “ΔΔGI-N° = ΔGI-N°(ligand) – ΔGI-N°(no ligand)” value is 0.09 (± 0.07) kcal/mol. Further, in assay [1] (setting [13]), the “ΔGI-N°” value was 11.7 (± 0.1) kcal/mol and the ΔGU-I is recorded as 5.6 (± 0.2) kcal/mol.

Consider `Nc1nc2c(ncn2[C@@H]2O[C@H](COP(=O)(O)OP(=O)(O)OP(=O)(O)O)[C@@H](O)[C@H]2O)c(=O)[nH]1` [GTP, guanosine triphosphate], for which the affinity in assay [1], expressed as Kd, was 0.4 ± 0.5 µM. Besides, in assay [1] (ligand 1.0 mM), the “effect on equilibrium unfolding” value is “significantly shift the first unfolding transition to higher urea concentrations” and the “ΔΔGI-N° = ΔGI-N°(ligand) – ΔGI-N°(no ligand)” value was 9.3 (± 0.8) kcal/mol. Besides, in [1] (setting [13]), the “ΔGI-N°” value is recorded as 20.9 (± 0.8) kcal/mol and the ΔGU-I was 4.3 (± 0.6) kcal/mol.

Regarding `O=P(O)(O)OP(=O)(O)O` [Pyrophosphate], in assay [1], the Kd is 1.2 ± 0.2 µM, the mI-N is reported as 2.47 (± 0.04) kcal mol^−1M^−1, the mU-I is 1.62 (± 0.09) kcal mol^−1M^−1 and the “ΔGI-N°” value was 16.8 (± 0.1) kcal/mol. For the same molecule, in [1], the ΔGU-I is listed as 5.2 (± 0.3) kcal/mol and the “ΔΔGI-N°” value is recorded as 5.3 (± 0.1) kcal/mol.

As to phosphate, in assay [1] (50 mM phosphate), the “ΔΔGI-N°” value is listed as 5.9 (± 0.1) kcal/mol. Further, in assay [1] (setting [14]), the “ΔGI-N°” value is given as 17.3 (± 0.1) kcal/mol and the ΔGU-I is reported as 5.6 (± 0.3) kcal/mol. Moreover, in [1] (setting [15]), the mI-N was 2.36 (± 0.03) kcal mol^−1M^−1 and the mU-I was 1.82 (± 0.08) kcal mol^−1M^−1. For the same molecule, the dissociation constant (Kd) in assay [1] (calculated with Eq. 6, 50 mM phosphate) was 350 ± 60 µM.
